# Assay results published in patent publication US12251459B2, “Compositions, formulations, and methods for hair treatment” (Oddity Labs, LLC, priority 2022, dated 2025).
# Columns and labels:
# [1] = test system: HepG2 cells; assay: Caspase 3/7 activity in HepG2 cells; type: cell-based; conditions: HepG2, >2-log concentration range, versus % v/v-matched DMSO
# Protocol: Cells were treated with either the example compounds or vehicle control containing correspondingly % v/v-matched amounts of DMSO spanning a >2-log concentration range. Data represents mean±s.d. and representative of at least 2 experimental replicates.
# HepG2 cells are an immortalized liver cell line commonly used to study apoptosis induced by small molecules. Cells were treated with either the example compounds or vehicle control containing correspondingly % v/v-matched amounts of DMSO spanning a >2-log concentration range. Data represents mean±s.d. and representative of at least 2 experimental replicates.
# [2] = Clinical consumer perception study; type: in vivo, human
# Protocol: The clinical test was performed by Eurofins|CRL, Inc. The test followed established, standardized procedures for clinical testing designed to ensure the well-being of clinical study subjects and the generation of reliable study data. Subjects were female and ranged in age from 27-65 years. Subjects used a simple, water-based formula containing an example compound, VII-3 (at 0.02% v/v) every 2 days in the morning or night on dry or towel-dried hair. Approximately 2 mL was applied directly to the hairline. No randomization was required for the study and subjects were blinded to the name of the test material.
# Photographs of subjects' hair were taken 6 weeks after the treatment with the representative compounds (FIG. 6). Subjects were female and ranged in age from 27-65 years. Subjects used a simple, water-based formula containing an example compound VII-3 (at 0.02% v/v) every 2 days in the morning or night on dry or towel-dried hair. Approximately 2 mL was applied directly to the hairline. No randomization was required for the study and subjects were blinded to the name of the test material. FIG. 6. highlights specific regions of the included participants' scalps, juxtaposing pictures taken before and after the study. Based on clinical surveys, 97% of women reported an improvement in their hair's appearance while 82% reported increased hair growth and thickness.
# After the conclusion of the study, subjects completed a Consumer perception questionnaire. Table 24 includes percentages of each response for the corresponding prompt in the questionnaire. The specific response choice is specified within the parentheses below the percentage.
# [3] = test system: Human follicle papilla cells; assay: Functional stability: follicle papilla cell proliferation after pH and temperature pre-treatment of the compound; type: cell-based; conditions: prepared in DMSO, DMI or 1:1 DMI/ethanol, diluted in pH-adjusted water, varying temperatures, 7 days; cells dosed 5 μg/mL, 48 hr
# Protocol: Compound VII-3 was prepared in various solvents (DMSO; dimethyl sulfoxide, DMI; dimethyl isosorbide, or a 1:1 mixture of dimethyl isosorbide and ethanol), the diluted in pH-adjusted water and left at varying temperatures for 7 days. Human follicle papilla cells were dosed at 5 μg/mL with the example compound and further supplemented with 6-bromoindirubin-39-Oxime (BIO), recombinant bone morphogenetic protein-2 (BMP-2), and basic fibroblast growth factor (FGFβ), whose combination was previously found to preserve in vivo dermal papilla gene signatures. Normalized proliferation follicle papilla cell proliferation was analyzed after 48 hr following the treatment with the example compound pre-treated across a range of pH conditions (FIG. 7A) and temperature conditions (FIG. 7B). Data represents mean±s.d. and representative of n=2 donors.
# [4] = test system: human hair follicle dermal papilla cells (hFDPC); assay: Human follicle dermal papilla cells (hFDPC) proliferation assay; type: cell-based; conditions: hFDPCs supplemented with BIO, BMP-2 and FGFβ
# From the text: In Table 8, A represents less than 20% of increased proliferation of hFDPCs, B represents 20-40%, and C represents larger than 40% of increased proliferation of hFDPCs.
# [5] = test system: bacteria; assay: SOS chromotest (bacteria-based genotoxicity test, β-galactosidase activity); type: cell-based; conditions: varying concentrations; 4-NQ as known genotoxin
# Protocol: The SOS chromotest is a well-established bacteria-based test for genotoxicity.
# The safety/toxicology profiles of a compound or salt of the present disclosure was evaluated via a series of in vitro genotoxicity assays, including the SOS-chromotest to determine bacterial genotoxicity, and the TK.6 micronucleus assay to determine chromosomal damage and forward mutations. Standard reactive oxygen species (ROS) and caspase 3/7 assay were conducted to determine general cellular toxicity. Moreover, a series of sensitization tests were conducted to predict any potential skin sensitivity. These include the direct peptide reactivity assay to evaluate haptenization, the KeratinoSens reporter assay to determine potential sensitivity via the activation of a cytoprotective pathway, and an immunological assay using human immature monocyte-derived dendritic cells to evaluate any potential immunogenicity.
# [6] = response: I haven't noticed a change
structure (smiles),measurement,setting,value
"CSc1nc(-c2ccco2)nn1S(C)(=O)=O [VII-3, 1H-1,2,4-Triazole, 3-(2-furanyl)-1-(methylsulfonyl)-5-(methylthio)-]",Normalized caspase 3/7 activity,[1],did not exhibit any caspase activation
same,"Since the beginning of the study, I have noticed a decrease of the number of hairs lost in the shower.",[2]; response: Agree,53.1%
same,"Since the start of the study, I can see more hair in the areas where the serum was applied.",[2]; response: Agree,53.1%
same,"Since the beginning of the study, I have noticed a decrease of the number of hairs lost in the shower.",[2]; response: Disagree,6.3%
same,"Since the start of the study, I can see more hair in the areas where the serum was applied.",[2]; response: Disagree,3.1%
same,"Because of the treatment I have received since the start of the study, the appearance of my hair is:",[2]; response: Fuller,56.3%
same,"Since the beginning of the study, I have noticed a decrease of the number of hairs lost in the shower.",[2]; [6],21.9%
same,"Since the start of the study, I can see more hair in the areas where the serum was applied.",[2]; [6],31.3%
same,"Since the start of the study, how effective do you think the treatment has been in increasing your hair growth/thickness?",[2]; response: Not effective at all,0%
same,"Since the start of the study, how effective do you think the treatment has been in slowing down your hair loss?",[2]; response: Not effective at all,3.1%
same,"Since the start of the study, how effective do you think the treatment has been in increasing your hair growth/thickness?",[2]; response: Not very effective,18.8%
same,"Since the start of the study, how effective do you think the treatment has been in slowing down your hair loss?",[2]; response: Not very effective,15.6%
same,"Since the start of the study, how effective do you think the treatment has been in increasing your hair growth/thickness?",[2]; response: Somewhat effective,71.9%
same,"Since the start of the study, how effective do you think the treatment has been in slowing down your hair loss?",[2]; response: Somewhat effective,53.1%
same,"Because of the treatment I have received since the start of the study, the appearance of my hair is:",[2]; response: Stronger,21.9%
same,"Since the beginning of the study, I have noticed a decrease of the number of hairs lost in the shower.",[2]; response: Strongly Agree,18.8%
same,"Since the start of the study, I can see more hair in the areas where the serum was applied.",[2]; response: Strongly Agree,12.5%
same,"Since the beginning of the study, I have noticed a decrease of the number of hairs lost in the shower.",[2]; response: Strongly Disagree,0%
same,"Since the start of the study, I can see more hair in the areas where the serum was applied.",[2]; response: Strongly Disagree,0%
same,"Because of the treatment I have received since the start of the study, the appearance of my hair is:",[2]; response: Thicker,18.8%
same,"Because of the treatment I have received since the start of the study, the appearance of my hair is:",[2]; response: Thinner,3.1%
same,"Since the start of the study, how effective do you think the treatment has been in increasing your hair growth/thickness?",[2]; response: Very effective,9.4%
same,"Since the start of the study, how effective do you think the treatment has been in slowing down your hair loss?",[2]; response: Very effective,28.1%
same,"Because of the treatment I have received since the start of the study, the appearance of my hair is:",[2]; response: Weaker,0%
same,Subjects with tight hairstyles who noticed less shedding,"[2]; water-based formula 0.02% v/v every 2 days, 6 weeks, 32 female subjects",28/32 (87%)
same,Adverse effects,"[2]; water-based formula 0.02% v/v every 2 days, 6 weeks, 32 subjects completed",0/32 (0%)
same,functional stability (normalized follicle papilla cell proliferation after pre-treatment of the compound),[3],functionally stable across physiologically-relevant pH and temperature ranges
same,Percent Increase Proliferation of hFDPCs (%),[4],B (B represents 20-40%)
same,genotoxic effects in SOS chromotest (normalized β-galactosidase activity),[5],did not exhibit any genotoxic effects
